The nature of data set [1]: Cytotoxicity assay (HepG2, CellTiter-Blue cell viability). In kind it is cell-based. The conditions noted are these: human; HepG2 cells, 3 days treatment; "*": the detection limit; read-out: CC50. How it is done:
The cytotoxicity of compounds of present invention was assessed by HepG2 assay. HepG2 cells (ATCC HB-8065™) were seeded into 96-well plates (1.2×10^4 cells per well) and treated with compounds for 3 days, cell viability was measured at day 3 post compound treatment using the CellTiter-Blue® Cell Viability Assay (Promega, Cat. No. G8082). 20 μL of Cell titer blue buffer were added to each well of the cells, which were incubated for 3 hours at 37° C., and the fluorescence value was measured by a plate reader (Molecular Device SpectraMax M2). The CC50 value of each compound is plotted with GraphPad Prism using four parameter logistic equation.
Background: Resazurin is reduced to fluorescent resorufin, in cell work by metabolically active cells.

Data set [2] in a line: Lyophilisation solubility assay (LYSA). The conditions noted are these: phosphate buffer, pH 6.5, aqueous buffer, thermodynamic from solid, 0.05 M phosphate buffer, HPLC-UV. It is filed as physicochemical. The method in brief:
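Read-out is HPLC-UV of the filtered solution and its 1/10 dilution. The dried residue of a 10 mM DMSO stock was redissolved in 0.05 M pH 6.5 phosphate buffer, then stirred 1 h, shaken 2 h and held overnight. Run in duplicate.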

A further data set relates to A. baumannii (ATCC17978). Description: 50% growth inhibitory concentration (IC50) determination assay. In kind it is cell-based. The conditions noted are these: Acinetobacter baumannii, ATCC17978, A. baumannii ATCC17978; Iso-Sensitest broth; 0.098 = detection limit. The method in brief: (§1)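 Broth microdilution in Iso-Sensitest medium, ~5×10^5 CFU/mL inoculum, compound 50–0.097 μM final (two-fold series), 35±2° C; OD600 read every 20 min over 16 h.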

A further data set concerns S. aureus (ATCC29213). Described as above. In kind it is cell-based. The conditions noted are these: Staphylococcus aureus, Iso-Sensitest broth, 0.098 = detection limit. In short, it runs like this: as §1
In data set [3] the test system is K. pneumoniae (ATCC10031). Described as above. It is filed as cell-based. The conditions noted are these: Klebsiella pneumoniae, Iso-Sensitest broth, 0.098 = detection limit. The method in brief:
as §1

The values below come from patent publication US10662203B2, “Pyrido[2,3-b]indole compounds for the treatment and prophylaxis of bacterial infection” (Hoffmann-La Roche Inc., priority 2017, dated 2020).

Values after ≈ are worked out from the molar mass of the structure shown.

As usually defined, the CC50 is the concentration that lowers cell viability or growth by half. Regarding `CNc1cc(F)cc2c1[nH]c1ncc(-c3cnc4c(c3)c(=O)c(C(=O)O)cn4C)c(N3CCC(O)(C(F)(F)F)C3)c12` (centres unmarked) [Example 1.25], the CC50 at 3 days in data set [1] came out at 62600 nM.
Still for that read-out and setting: for `CNc1cc(F)c(F)c2c1[nH]c1ncc(-c3cnc4c(c3)c(=O)c(C(=O)O)cn4CC3COCCN3)c(N3CCOCC3)c12` (centres unmarked) [Example 1.31] the value was 49000 nM; for `CCNc1cc(F)cc2c1[nH]c1ncc(-c3cnc4c(c3)c(=O)c(C(=O)O)cn4C3CCNC3)c(N3CCOCC3)c12` (centres unmarked) [Example 1.34], above 100000 nM.
Still for that read-out and setting: the result for `CNc1cc(F)cc2c1[nH]c1ncc(-c3cnc4c(c3)c(=O)c(C(=O)O)cn4CC3COCCN3)c(NC)c12` (centres unmarked) [Example 1.37] reads 55500 nM; that for `CNc1cc(F)c(F)c2c1[nH]c1ncc(-c3cnc4c(c3)c(=O)c(C(=O)O)cn4CC3COCCN3)c(N(C)CCOC)c12` (centres unmarked) [Example 1.41], 90200 nM; that for `CNc1cc(F)c(F)c2c1[nH]c1ncc(-c3cnc4c(c3)c(=O)c(C(=O)O)cn4CC3CNCCO3)c(N3CCOCC3)c12` (centres unmarked) [Example 1.42], above 100000 nM.
The term thermodynamic solubility denotes the concentration in solution at equilibrium with solid. As a reminder, the IC50 is the point on the concentration scale where inhibition reaches its midpoint. Higher therefore signals weaker potency in that assay. Turning to `CNc1cc(F)c(F)c2c1[nH]c1ncc(-c3cnc4c(c3)c(=O)c(C(=O)O)cn4NC)c(N3C[C@@H]4CCN(C)[C@@H]4C3)c12` [Example 3.07B], the thermodynamic solubility in data set [2] is 33 µg/mL (≈ 57.4 µM). The half-inhibitory concentration (IC50) in the data set on A. baumannii (ATCC17978) is 0.155 µM; in the data set with S. aureus (ATCC29213), 0.122 µM; in data set [3], below 0.098 µM.
`CNc1cc(F)cc2c1[nH]c1ncc(-c3cnc4c(c3)c(=O)c(C(=O)O)cn4NC)c(N3C[C@H]4CCN(C)[C@H]4C3)c12` [Example 3.17A] returned a thermodynamic solubility in data set [2] of 118 µg/mL (≈ 212 µM). In addition, the IC50 with A. baumannii (ATCC17978) is 0.087 µM; in the data set on S. aureus (ATCC29213) it was below 0.098 µM; in data set [3], below 0.098 µM.
Take `CNc1cc(F)cc2c1[nH]c1ncc(-c3cnc4c(c3)c(=O)c(C(=O)O)cn4NC)c(N3C[C@@H]4CCN(C)[C@@H]4C3)c12` [Example 3.17B]: the thermodynamic solubility in data set [2] was 125 µg/mL (≈ 225 µM). In addition, the IC50 was 0.075 µM in the data set with A. baumannii (ATCC17978), below 0.098 µM in the data set with S. aureus (ATCC29213) and below 0.098 µM in data set [3].
Compound `CNc1cc(F)cc2c1[nH]c1ncc(-c3cnc4c(c3)c(=O)c(C(=O)O)cn4C)c(N3CC[C@H]4CCN(C)[C@H]4C3)c12` [Example 3.18A] came in with a thermodynamic solubility in data set [2] of 172 µg/mL (≈ 310 µM). In addition, the IC50 in the data set with A. baumannii (ATCC17978) is 0.081 µM; in the data set with S. aureus (ATCC29213), below 0.098 µM; in data set [3], below 0.098 µM.
Regarding `CNc1cc(F)cc2c1[nH]c1ncc(-c3cnc4c(c3)c(=O)c(C(=O)O)cn4C)c(N3CC[C@@H]4CCN(C)[C@@H]4C3)c12` [Example 3.18B], the solubility (thermodynamic) in data set [2] was found to be 338 µg/mL (≈ 608 µM). The IC50 was 0.275 µM in the data set on A. baumannii (ATCC17978), 0.133 µM with S. aureus (ATCC29213) and below 0.098 µM in data set [3].
Taken in the same sequence, the figures for `CNc1cc(F)cc2c1[nH]c1ncc(-c3cnc4c(c3)c(=O)c(C(=O)O)cn4NC)c(N3C[C@H]4OCCN(C)[C@H]4C3)c12` [Example 3.23A] were 49 µg/mL (≈ 85.6 µM), 0.865 µM, below 0.098 µM and below 0.098 µM.
In data set [2], `CNc1cc(F)cc2c1[nH]c1ncc(-c3cnc4c(c3)c(=O)c(C(=O)O)cn4NC)c(N3C[C@@H]4OCCN(C)[C@@H]4C3)c12` [Example 3.23B] displayed a thermodynamic solubility of 58 µg/mL (≈ 101 µM). Further, the IC50 is 0.789 µM with A. baumannii (ATCC17978), below 0.098 µM with S. aureus (ATCC29213) and below 0.098 µM in data set [3].
On to `CNc1cc(F)c(F)c2c1[nH]c1ncc(-c3cnc4c(c3)c(=O)c(C(=O)O)cn4C)c(N3C[C@@H](F)C[C@H]3CN(C)C)c12` [Example 7.01, 6-(4-((2S,4S)-2-((Dimethylamino)methyl)-4-fluoropyrrolidin-1-yl)-5,6-difluoro-8-(methylamino)-9H-pyrido[2,3-b]indol-3-yl)-1-methyl-4-oxo-1,4-dihydro-1,8-naphthyridine-3-carboxylic acid], for which the solubility (thermodynamic) in data set [2] turned out to be 330 µg/mL (≈ 569 µM). Also, the IC50 in the data set on A. baumannii (ATCC17978) is 0.28 µM; with S. aureus (ATCC29213) it was below 0.098 µM; in data set [3], below 0.098 µM.
